Source: PMC9573696, “Experimental Examination of Solubility and Lipophilicity as Pharmaceutically Relevant Points of Novel Bioactive Hybrid Compounds” (Molecules, 2022)
Values after ≈ are worked out from the molar mass of the structure shown.

Legend:
[1] = Partition in system 1-octanol/buffer pH 7.4, shake-flask method; format: physicochemical; details: for logP at 2 days / logD at 2 days: pH 7.4, 1-octanol/buffer pH 7.4; for logP at 2 days: from concentrations in mole fraction
Experimental: The partition coefficients of the new hybrid compounds in the model system 1-octanol/buffer pH 7.4 as a lipophilicity surrogate were determined experimentally. […] It is the lipophilic properties that allow the hybrids to move from the water phase to the less hydrophilic octanol phase, where the solute–solvent intermolecular interactions are more favourable. According to the results shown in Table 5, the order of changes in the partition coefficients logPo/b at T = 298.15 K, depending on the substituent nature, is expressed as the inequality: Cl- (1.65) < F- (2.40) < CH3- (2.50). Compounds I and II are the most lipophilic in the series of the studied substances, whereas the introduction of a chlorine atom considerably lowers the partition coefficient (~0.8 log units). This fact agrees with the common concept that lipophilic groups are usually hydrocarbon or fluorine-containing radicals. […] For drugs with such partition coefficients, there is a good balance between the solubility and permeability through passive diffusion and minimum metabolism due to the low binding capacity with enzymes.
The octanol/buffer pH 7.4 partition coefficient logPO/B is measured in a static mode using the shake-flask method. The procedure has been presented as standard in the Organization for Economic Cooperation and Development (OECD) guidelines for testing chemicals. The equipment described above was also used for the determination of the 1-octanol/water partition coefficients. […] The correctness of the obtained value of each compound was verified by checking the mass balance of the starting amount of the compound and the total amount of the compound partitioned between the two phases.
To aim evaluated transfer (partition) thermodynamic functions, the 1-octanol/buffer partition coefficients P^* o/b as the ratio of equilibrium concentrations in the organic (xo) and aqueous phases (xb) expressed in mole fractions were calculated: P* o/b = xo/xb(12)

[2] = Apparent thermodynamic functions of dissolution (van't Hoff); format: physicochemical; details: Thm = 302.98 K
Source text: The dissolution of the new hybrids was characterized based on apparent thermodynamic parameters obtained from temperature dependences of solubility of the studied compounds in the selected solvents (Figure 6). […] The van’t Hoff enthalpy of dissolution can be expressed as the inclination of a tangent to a solubility curve plotted as lnx vs. (1/T − 1/Thm) by Equation (6): (6) ΔHsolo=−R(∂lnx/∂(1/T−1/Thm))=−R⋅slope where R = 8.314 J⋅K^−1·mol^−1 is the universal gas constant. Thm = 302.98 K denotes the mean harmonic temperature, which was calculated by Equation (7):(7) Thm=n/∑i=1n1/Ti where n represented the number of experimental temperatures. The apparent standard Gibbs energy was evaluated by Equation (8):(8) ΔGsolo=−RThm×intersept
The apparent standard solution entropies were obtained from the well-known relationship:(9) ΔSsolo=ΔHsolo−ΔGsolo/Thm
The calculated apparent thermodynamic solubility functions of dissolution (Gibbs energy, enthalpy, and entropy) at standard temperature 298.15 K for hybrid compounds were collected in Table 4.

[3] = Thermodynamic functions of transfer 1-octanol/buffer pH 7.4; format: physicochemical; details: 298.15 K
Experimental: The temperature variation of the partition coefficient provides enthalpic and entropic contributions to the free energy of transfer. The thermodynamic transfer functions for hybrids I–III in the 1-octanol/buffer pH 7.4 system were calculated by Equations (12)–(16) and are summarized in Table 6. The standard Gibbs energy values for all the compounds are negative. Therefore, the transfer from the aqueous medium to the organic phase within the studied temperature range is thermodynamically favourable and spontaneous. The standard transfer enthalpies of all the studied compounds are positive, which means the process is endothermic. Energy is consumed during the transfer to overcome the hydrophobic effects in water (destruction of the molecule solvate shell structure), destruction of the solvent–solute interactions in the aqueous medium and creation of a cavity in the organic phase where the solute molecules can enter.
The standard change in Gibbs free energy of transfer (∆trG^o) from the buffer to the organic phase was calculated by Equation (14):∆trG^o = −RTlnP*o/b(14)
The standard change entropy of transfer (∆trS^o) is determined as follows:∆trS^o = (∆trH^o − ∆trG^o)/T(15)

[4] = tested on: C. parapsilosis ATCC 22019; experiment: In vitro antifungal activity, microbroth dilution (MIC); format: cell-based
Experimental: (§1) The in vitro antifungal screening results of synthesized compounds was evaluated against three fungal strains: C. parapsilosis ATCC 22019, C. utilis 84, and C. glabrata 61L are summarized in Table 1.
(§2) The in vitro antifungal activity of the target compounds was measured by means of the minimal inhibitory concentrations (MIC) with fluconazole as the control drug. Procedure was carried out by the microbroth dilution method in 96-well plates according to the recommendations of the Clinical and Laboratory Standards Institute. The detailed information was reported previously. The investigated pathogenic species included C. parapsilosis ATCC 22019, C. utilis 84 and C. glabrata 61. The sensitivity was evaluated visually, after the incubation at 35 °C for 24 h and the value was compared with the growth density in the reference culture without the sample. Each test was conducted in triplicate.

C. utilis 84 = experiment: as above; format: cell-based; details: Williopsis jadinii, 84, 24 h
Experimental: as §1, §2

C. glabrata 61L = experiment: as above; format: cell-based
Experimental: as §1, §2

[5] = 1-octanol/buffer pH 7.4, 293.15 K
[6] = 1-octanol/buffer pH 7.4, 298.15 K
[7] = 1-octanol/buffer pH 7.4, 303.15 K
[8] = 1-octanol/buffer pH 7.4, 308.15 K
[9] = 1-octanol/buffer pH 7.4, 313.15 K

Cc1ccc(-n2c(=S)sc3c(=O)n(CCCN4CCN(CC(O)(Cn5cncn5)c5ccc(F)cc5F)CC4)cnc32)cc1 (stereo not drawn) [I, 6-[3-[4-[2-(2,4-difluorophenyl)-2-hydroxy-3-(1H-1,2,4-triazol-1-yl)propyl]-1-piperazinyl]propyl]-2,3-dihydro-3-(4-methylphenyl)-2-thioxo-thiazolo[4,5-d]pyrimidin-7(6H)-one]
sb × 10^6 (concentration in buffer) [1, 5]: 10.2 mol∙L^−1 (printed as sb × 10^6
so × 10^3 (concentration in 1-octanol) [1, 5]: 2.88 mol∙L^−1 (printed as so × 10^3
xb × 10^7 (mole fraction in buffer) [1, 5]: 1.82 mole fraction (printed as xb ×
xo × 10^4 (mole fraction in 1-octanol) [1, 5]: 4.54 mole fraction (printed as xo ×
sb × 10^6 (concentration in buffer) [1, 6]: 9.11 mol∙L^−1 (printed as sb × 10^6
so × 10^3 (concentration in 1-octanol) [1, 6]: 2.88 mol∙L^−1 (printed as so × 10^3
xb × 10^7 (mole fraction in buffer) [1, 6]: 1.63 mole fraction (printed as xb ×
xo × 10^4 (mole fraction in 1-octanol) [1, 6]: 4.57 mole fraction (printed as xo ×
sb × 10^6 (concentration in buffer) [1, 7]: 7.95 mol∙L^−1 (printed as sb × 10^6
so × 10^3 (concentration in 1-octanol) [1, 7]: 2.88 mol∙L^−1 (printed as so × 10^3
xb × 10^7 (mole fraction in buffer) [1, 7]: 1.43 mole fraction (printed as xb ×
xo × 10^4 (mole fraction in 1-octanol) [1, 7]: 4.59 mole fraction (printed as xo ×
sb × 10^6 (concentration in buffer) [1, 8]: 7.16 mol∙L^−1 (printed as sb × 10^6
so × 10^3 (concentration in 1-octanol) [1, 8]: 2.88 mol∙L^−1 (printed as so × 10^3
xb × 10^7 (mole fraction in buffer) [1, 8]: 1.29 mole fraction (printed as xb ×
xo × 10^4 (mole fraction in 1-octanol) [1, 8]: 4.61 mole fraction (printed as xo ×
logPo/b ([1]; 1-octanol/buffer pH 7.4, 308.15 K, from concentrations in mol∙L^−1): 2.60
sb × 10^6 (concentration in buffer) [1, 9]: 6.38 mol∙L^−1 (printed as sb × 10^6
so × 10^3 (concentration in 1-octanol) [1, 9]: 2.88 mol∙L^−1 (printed as so × 10^3
xb × 10^7 (mole fraction in buffer) [1, 9]: 1.15 mole fraction (printed as xb ×
xo × 10^4 (mole fraction in 1-octanol) [1, 9]: 4.63 mole fraction (printed as xo ×
logP at 2 days ([1]; 293.15 K): 3.39
logD at 2 days ([1]; 293.15 K, from concentrations in mol∙L^−1): 2.45
logP at 2 days ([1]; 298.15 K): 3.44
logD at 2 days ([1]; 298.15 K, from concentrations in mol∙L^−1): 2.5
logP at 2 days ([1]; 303.15 K): 3.5
logD at 2 days ([1]; 303.15 K, from concentrations in mol∙L^−1): 2.56
logP at 2 days ([1]; 308.15 K): 3.55
logP at 2 days ([1]; 313.15 K): 3.6
logD at 2 days ([1]; 313.15 K, from concentrations in mol∙L^−1): 2.65
TΔSsolo ([2]; 1-Octanol): -6.2 kJ/mol
ΔGsolo ([2]; 1-Octanol): 16.8 ± 0.2 kJ/mol
ΔHsolo ([2]; 1-Octanol): 10.6 ± 0.2 kJ/mol
ΔSsolo ([2]; 1-Octanol): −20.8 ± 1.1 J·mol^−1·K^−1
TΔSsolo ([2]; Buffer pH 2.0): -13.5 kJ/mol
ΔGsolo ([2]; Buffer pH 2.0): 25.4 ± 0.5 kJ/mol
ΔHsolo ([2]; Buffer pH 2.0): 11.9 ± 0.1 kJ/mol
ΔSsolo ([2]; Buffer pH 2.0): −45.2 ± 2.4 J·mol^−1·K^−1
TΔSsolo ([2]; Buffer pH 7.4): -19.0 kJ/mol
ΔGsolo ([2]; Buffer pH 7.4): 32.2 ± 0.6 kJ/mol
ΔHsolo ([2]; Buffer pH 7.4): 13.2 ± 0.1 kJ/mol
ΔSsolo ([2]; Buffer pH 7.4): −63.6 ± 4.1 J·mol^−1·K^−1
T∆trS^o [3]: 38.0 ± 0.9 kJ/mol
∆trG^o [3]: -19.6 ± 0.5 kJ/mol
∆trH^o [3]: 18.3 ± 0.3 kJ/mol
∆trS^o [3]: 127.4 ± 4.7 J·mol^−1·K^−1
advantage over fluconazole ([4]; C. parapsilosis ATCC 22019, MIC ratio): 4 fold
MIC ([4]; Lodderomyces parapsilosis, ATCC22019, 24 h): 0.5 mg/L (≈ 0.783 µM)
MIC (C. utilis 84): 4 mg/L (≈ 6.26 µM)
MIC relative to the reference value (fluconazole) (C. glabrata 61L; C. glabrata 61L): four times less
MIC (C. glabrata 61L; Nakaseomyces glabratus, 61L, 24 h): 2 mg/L (≈ 3.13 µM)
